Patent US9944646B2, “Bicyclic azaheterocyclobenzylamines as PI3K inhibitors” (Incyte Corporation, priority 2012, dated 2018)
pIC50: −log10 of the molar value. Counter-ions that a name gives are not always drawn.

Each compound was assayed against PI3Kδ (Homo sapiens (Human), UniProt O00329) (assay: PI3K Enzyme Assay (Example A2), [γ-33P]ATP filter plate).
Format: biochemical
Description: Example A2: PI3K Enzyme Assay
Lipid kinase substrate, phosphoinositol-4,5-bisphosphate (PIP2), are purchased from Echelon Biosciences (Salt Lake City, Utah). PI3K isoforms α, β, δ and γ are purchased from Millipore (Bedford, Mass.). ATP, MgCl2, DTT, EDTA, MOPS and CHAPS are purchased from Sigma-Aldrich (St. Louis, Mo.).
The kinase reaction are conducted in clear-bottom 96-well plate from Thermo Fisher Scientific in a final volume of 24 μL. Inhibitors are first diluted serially in DMSO and added to the plate wells before the addition of other reaction components. The final concentration of DMSO in the assay is 0.5%. The PI3K assays are carried out at room temperature in 20 mM MOPS, pH 6.7, 10 mM MgCl2, 5 mM DTT and CHAPS 0.03%. The reaction mixture is prepared containing 50 µM PIP2, kinase and varying concentration of inhibitors. Reactions are initiated by the addition of ATP containing 2.2 μCi [γ-^33P]ATP to a final concentration of 1000 μM. The final concentration of PI3K isoforms α, β, δ and γ in the assay were 1.3, 9.4, 2.9 and 10.8 nM, respectively. Reactions are incubated for 180 minutes and terminated by the addition of 100 μL of 1 M potassium phosphate pH 8.0, 30 mM EDTA quench buffer. A 100 μL aliquot of the reaction solution are then transferred to 96-well Millipore MultiScreen IP […] PVDF filter plate (The filter plate is prewetted with 200 μL 100% ethanol, distilled water, and 1 M potassium phosphate pH 8.0, respectively). The filter plate is aspirated on a Millipore Manifold under vacuum and washed with 18×200 μL wash buffer containing 1 M potassium phosphate pH 8.0 and 1 mM ATP. After drying by aspiration and blotting, the plate is air dried in an incubator at 37° C. overnight. Packard TopCount adapter (Millipore) is then attached to the plate followed with addition of 120 μL Microscint 20 scintillation cocktail (Perkin Elmer) in each well. After the plate sealing, the radioactivity of the product is determined by scintillation counting on Topcount (Perkin-Elmer). IC50 determination is performed by fitting the curve of percent control activity versus the log of the inhibitor concentration using the GraphPad Prism 3.0 software.

Sequence of PI3Kδ (O00329 whole entry): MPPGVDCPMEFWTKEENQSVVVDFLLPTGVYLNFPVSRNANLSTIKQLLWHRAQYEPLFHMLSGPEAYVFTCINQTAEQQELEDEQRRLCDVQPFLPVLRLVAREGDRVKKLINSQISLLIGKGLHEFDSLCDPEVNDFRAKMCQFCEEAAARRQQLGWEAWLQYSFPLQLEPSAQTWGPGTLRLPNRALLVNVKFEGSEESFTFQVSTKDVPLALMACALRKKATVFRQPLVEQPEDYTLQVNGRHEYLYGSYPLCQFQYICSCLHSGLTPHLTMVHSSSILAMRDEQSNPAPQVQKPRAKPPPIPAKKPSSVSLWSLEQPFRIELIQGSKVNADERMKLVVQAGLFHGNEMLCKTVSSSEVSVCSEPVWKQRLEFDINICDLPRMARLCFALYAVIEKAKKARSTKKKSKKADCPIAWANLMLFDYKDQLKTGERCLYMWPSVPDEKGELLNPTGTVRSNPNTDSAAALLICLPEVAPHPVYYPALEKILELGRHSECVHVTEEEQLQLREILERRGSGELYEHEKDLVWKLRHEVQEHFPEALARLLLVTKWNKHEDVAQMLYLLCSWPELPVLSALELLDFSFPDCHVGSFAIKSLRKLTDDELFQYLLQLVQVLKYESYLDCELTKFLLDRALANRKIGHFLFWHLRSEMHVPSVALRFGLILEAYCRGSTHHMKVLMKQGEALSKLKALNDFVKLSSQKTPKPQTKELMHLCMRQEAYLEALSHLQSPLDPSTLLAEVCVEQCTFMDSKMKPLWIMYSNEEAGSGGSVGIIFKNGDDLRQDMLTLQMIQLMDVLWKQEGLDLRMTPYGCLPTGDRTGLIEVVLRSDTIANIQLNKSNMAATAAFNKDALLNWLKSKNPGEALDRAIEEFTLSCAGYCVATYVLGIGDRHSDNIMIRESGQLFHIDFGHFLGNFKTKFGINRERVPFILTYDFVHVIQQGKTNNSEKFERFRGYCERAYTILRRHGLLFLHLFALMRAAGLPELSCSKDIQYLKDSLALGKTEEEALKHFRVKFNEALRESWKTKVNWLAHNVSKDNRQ
Sequence of PI3Kδ (P27986 whole entry partner): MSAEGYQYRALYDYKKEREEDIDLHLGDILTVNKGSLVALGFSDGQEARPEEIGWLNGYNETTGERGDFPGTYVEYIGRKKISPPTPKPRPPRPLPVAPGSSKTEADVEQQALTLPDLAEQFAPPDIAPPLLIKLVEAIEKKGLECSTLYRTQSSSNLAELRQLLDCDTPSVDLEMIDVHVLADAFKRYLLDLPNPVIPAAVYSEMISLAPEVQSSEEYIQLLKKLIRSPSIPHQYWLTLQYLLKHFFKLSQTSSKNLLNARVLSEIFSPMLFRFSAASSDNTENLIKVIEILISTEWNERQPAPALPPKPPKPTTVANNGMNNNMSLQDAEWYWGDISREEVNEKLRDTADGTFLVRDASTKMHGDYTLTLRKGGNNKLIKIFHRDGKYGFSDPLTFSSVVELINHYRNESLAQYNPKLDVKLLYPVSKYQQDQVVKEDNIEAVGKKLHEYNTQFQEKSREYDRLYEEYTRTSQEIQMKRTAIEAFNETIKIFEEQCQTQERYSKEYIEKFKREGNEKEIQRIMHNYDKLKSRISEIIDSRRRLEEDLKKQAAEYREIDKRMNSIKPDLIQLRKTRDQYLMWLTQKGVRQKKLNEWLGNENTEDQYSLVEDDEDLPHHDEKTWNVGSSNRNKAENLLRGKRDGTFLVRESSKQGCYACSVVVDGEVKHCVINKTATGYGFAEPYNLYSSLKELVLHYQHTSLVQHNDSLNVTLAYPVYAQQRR

Row | SMILES | pIC50
1 | CCOC(=O)N1CC(N2CCOc3c(C(C)n4nc(C)c5c(N)ncnc54)cc(Cl)c(C#N)c3C2)C1 (stereo not drawn) [Example 92, ethyl 3-[9-[1-(4-amino-3-methyl-1H-pyrazolo[3,4-d]pyrimidin-1-yl)ethyl]-7-chloro-6-cyano-2,3-dihydro-1,4-benzoxazepin-4(5H)-yl]azetidine-1-carboxylate] | ≥ 7.00
2 | Cc1nn(C(C)c2cc(Cl)c(F)c3c2OC(C)CN(S(C)(=O)=O)C3)c2ncnc(N)c12 (single isomer, unassigned) [Example 38, 1-{1-[7-Chloro-6-fluoro-2-methyl-4-(methylsulfonyl)-2,3,4,5-tetrahydro-1,4-benzoxazepin-9-yl]ethyl}-3-methyl-1H-pyrazolo[3,4-d]pyrimidin-4-amine] | < 6.10
3 | Cc1nn(C(C)c2cc(Cl)c(C#N)c3c2OC(C)CN(C2CN(CC(C)(C)O)C2)C3)c2ncnc(N)c12 (single isomer, unassigned) [Example 54, 9-[1-(4-Amino-3-methyl-1H-pyrazolo[3,4-d]pyrimidin-1-yl)ethyl]-7-chloro-4-[1-(2-hydroxy-2-methylpropyl)azetidin-3-yl]-2-methyl-2,3,4,5-tetrahydro-1,4-benzoxazepine-6-carbonitrile] | ≥ 7.00
4 | Cc1nn(C(C)c2cc(Cl)c(C#N)c3c2OC(C)CN(CC#N)C3)c2ncnc(N)c12 (single isomer, unassigned) [Example 107, 9-[1-(4-amino-3-methyl-1H-pyrazolo[3,4-d]pyrimidin-1-yl)ethyl]-7-chloro-4-(cyanomethyl)-2-methyl-2,3,4,5-tetrahydro-1,4-benzoxazepine-6-carbonitrile] | ≥ 7.00
5 | CC(=O)N1CC(N2Cc3c(C#N)c(Cl)cc(C(C)n4nc(C)c5c(N)ncnc54)c3OC(C)C2)C1 (single isomer, unassigned) [Example 48, 4-(1-Acetylazetidin-3-yl)-9-[1-(4-amino-3-methyl-1H-pyrazolo[3,4-d]pyrimidin-1-yl)ethyl]-7-chloro-2-methyl-2,3,4,5-tetrahydro-1,4-benzoxazepine-6-carbonitrile] | 6.30 to 7.00
6 | Cc1nn(C(C)c2cc(Cl)c(C#N)c3c2OC(C)CN(CC(C)(C)O)C3)c2ncnc(N)c12 (single isomer, unassigned) [Example 65, 9-[1-(4-Amino-3-methyl-1H-pyrazolo[3,4-d]pyrimidin-1-yl)ethyl]-7-chloro-4-(2-hydroxy-2-methylpropyl)-2-methyl-2,3,4,5-tetrahydro-1,4-benzoxazepine-6-carbonitrile] | ≥ 7.00
7 | CC(=O)N1CC(N2CCOc3c(C(C)n4nc(C)c5c(N)ncnc54)cc(Cl)c(C#N)c3C2)C1 (stereo not drawn) [Example 46, 4-(1-Acetylazetidin-3-yl)-9-[1-(4-amino-3-methyl-1H-pyrazolo[3,4-d]pyrimidin-1-yl)ethyl]-7-chloro-2,3,4,5-tetrahydro-1,4-benzoxazepine-6-carbonitrile] | ≥ 7.00
8 | Cc1nn(C(C)c2cc(Cl)c(C#N)c3c2OC(C)CN(CCO)C3)c2ncnc(N)c12 (single isomer, unassigned) [Example 61, 9-[1-(4-Amino-3-methyl-1H-pyrazolo[3,4-d]pyrimidin-1-yl)ethyl]-7-chloro-4-(2-hydroxyethyl)-2-methyl-2,3,4,5-tetrahydro-1,4-benzoxazepine-6-carbonitrile] | < 6.10
9 | Cc1nn(C(C)c2cc(Cl)c(F)c3c2O[C@@H](C)CN(C2CC(C(=O)O)C2)C3)c2ncnc(N)c12 (stereo partly drawn) [Example 41, 3-[9-[1-(4-Amino-3-methyl-1H-pyrazolo[3,4-d]pyrimidin-1-yl)ethyl]-7-chloro-6-fluoro-2-methyl-2,3-dihydro-1,4-benzoxazepin-4(5H)-yl]cyclobutanecarboxylic acid trifluoroacetate] | ≥ 7.00
10 | Cc1nn(C(C)c2cc(Cl)c(F)c3c2OC(C)CN(C2CN(S(C)(=O)=O)C2)C3)c2ncnc(N)c12 (stereo not drawn) [Example 75, 1-(1-{7-chloro-6-fluoro-2-methyl-4-[1-(methylsulfonyl)azetidin-3-yl]-2,3,4,5-tetrahydro-1,4-benzoxazepin-9-yl}ethyl)-3-methyl-1H-pyrazolo[3,4-d]pyrimidin-4-amine] | ≥ 7.00
11 | Cc1nn(C(C)c2cc(Cl)c(F)c3c2OC(C)CN(C2CN(C(N)=O)C2)C3)c2ncnc(N)c12 (single isomer, unassigned) [Example 83, 3-[9-[1-(4-amino-3-methyl-1H-pyrazolo[3,4-d]pyrimidin-1-yl)ethyl]-7-chloro-6-fluoro-2-methyl-2,3-dihydro-1,4-benzoxazepin-4(5H)-yl]azetidine-1-carboxamide] | ≥ 7.00
12 | CC(=O)NC1CC(N2Cc3c(C#N)c(Cl)cc(C(C)n4nc(C)c5c(N)ncnc54)c3OC(C)C2)C1 (single isomer, unassigned) [Example 68, N-{3-[9-[1-(4-Amino-3-methyl-1H-pyrazolo[3,4-d]pyrimidin-1-yl)ethyl]-7-chloro-6-cyano-2-methyl-2,3-dihydro-1,4-benzoxazepin-4(5H)-yl]cyclobutyl}acetamide] | ≥ 7.00
13 | COCCN1Cc2c(C#N)c(Cl)cc(C(C)n3nc(C)c4c(N)ncnc43)c2OC(C)C1 (single isomer, unassigned) [Example 112, 9-[1-(4-amino-3-methyl-1H-pyrazolo[3,4-d]pyrimidin-1-yl)ethyl]-7-chloro-4-(2-methoxyethyl)-2-methyl-2,3,4,5-tetrahydro-1,4-benzoxazepine-6-carbonitrile] | ≥ 7.00
14 | Cc1nn(C(C)c2cc(Cl)c(F)c3c2OC(C)CN(C2CN(C(=O)OC(C)(C)C)C2)C3)c2ncnc(N)c12 (single isomer, unassigned) [Example 26, tert-Butyl 3-[9-[1-(4-amino-3-methyl-1H-pyrazolo[3,4-d]pyrimidin-1-yl)ethyl]-7-chloro-6-fluoro-2-methyl-2,3-dihydro-1,4-benzoxazepin-4(5H)-yl]azetidine-1-carboxylate] | ≥ 7.00
15 | Cc1nn(C(C)c2cc(Cl)c(C#N)c3c2OC(C)CN(Cc2cccnc2)C3)c2ncnc(N)c12 (single isomer, unassigned) [Example 60, 9-[1-(4-Amino-3-methyl-1H-pyrazolo[3,4-d]pyrimidin-1-yl)ethyl]-7-chloro-2-methyl-4-(pyridin-3-ylmethyl)-2,3,4,5-tetrahydro-1,4-benzoxazepine-6-carbonitrile] | ≥ 7.00
16 | COCCN1Cc2c(C#N)c(Cl)cc(C(C)n3nc(C)c4c(N)ncnc43)c2OC(C)C1 (single isomer, unassigned) [Example 111, 9-[1-(4-amino-3-methyl-1H-pyrazolo[3,4-d]pyrimidin-1-yl)ethyl]-7-chloro-4-(2-methoxyethyl)-2-methyl-2,3,4,5-tetrahydro-1,4-benzoxazepine-6-carbonitrile] | ≥ 7.00
17 | Cc1nn(C(C)c2cc(Cl)c(C#N)c3c2OC(C)CN(C2CN(C(=O)NC(C)C)C2)C3)c2ncnc(N)c12 (single isomer, unassigned) [Example 102, 3-[9-[1-(4-amino-3-methyl-1H-pyrazolo[3,4-d]pyrimidin-1-yl)ethyl]-7-chloro-6-cyano-2-methyl-2,3-dihydro-1,4-benzoxazepin-4(5H)-yl]-N-isopropylazetidine-1-carboxamide] | ≥ 7.00
18 | CC(=O)N1CC(N2Cc3c(F)c(Cl)cc(C(C)n4nc(C)c5c(N)ncnc54)c3OC(C)C2)C1 (single isomer, unassigned) [Example 33, 1-{1-[4-(1-Acetylazetidin-3-yl)-7-chloro-6-fluoro-2-methyl-2,3,4,5-tetrahydro-1,4-benzoxazepin-9-yl]ethyl}-3-methyl-1H-pyrazolo[3,4-d]pyrimidin-4-amine] | 6.30 to 7.00
19 | CNC(=O)C1CC(N2Cc3c(C#N)c(Cl)cc(C(C)n4nc(C)c5c(N)ncnc54)c3OC(C)C2)C1 (single isomer, unassigned) [Example 114, 3-[9-[1-(4-amino-3-methyl-1H-pyrazolo[3,4-d]pyrimidin-1-yl)ethyl]-7-chloro-6-cyano-2-methyl-2,3-dihydro-1,4-benzoxazepin-4(5H)-yl]-N-methylcyclobutanecarboxamide] | ≥ 7.00
20 | Cc1nn(C(C)c2cc(Cl)c(C#N)c3c2OCCN(C2CN(CCO)C2)C3)c2ncnc(N)c12 (stereo not drawn) [Example 47, 9-[1-(4-amino-3-methyl-1H-pyrazolo[3,4-d]pyrimidin-1-yl)ethyl]-7-chloro-4-[1-(2-hydroxyethyl)azetidin-3-yl]-2,3,4,5-tetrahydro-1,4-benzoxazepine-6-carbonitrile] | ≥ 7.00
21 | Cc1nn(C(C)c2cc(Cl)c(C#N)c3c2OC(C)CN(C2CN(CCO)C2)C3)c2ncnc(N)c12 (single isomer, unassigned) [Example 104, 9-[1-(4-amino-3-methyl-1H-pyrazolo[3,4-d]pyrimidin-1-yl)ethyl]-7-chloro-4-[1-(2-hydroxyethyl)azetidin-3-yl]-2-methyl-2,3,4,5-tetrahydro-1,4-benzoxazepine-6-carbonitrile] | ≥ 7.00
